According to patent publication US20090291964A1, “Potentiators of Antibacterial Activity” (priority 2003, published 2009):

How the values were obtained:
[1] = system: S. aureus clinical isolates; test: MIC90 studies: fluoroquinolone susceptibility of clinical isolate panel with EPI; type: cell-based; conditions: EPI at 50 μg/ml
Method in brief: (§1)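 Fluoroquinolone MICs with efflux pump inhibitor measured against panels of resistant clinical isolates by NCCLS protocols. MIC90 taken across each panel. Oxacillin and vancomycin MICs run alongside to flag methicillin-resistant S. aureus and vancomycin-resistant E. faecalis isolates.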

[2] = system: E. faecalis clinical isolates; test: as above; type: cell-based; conditions: EPI at 50 μg/ml
Method in brief: as §1

[3] = alone and in combination with chemotherapeutic agents for cancer therapies; cited from earlier work
S. aureus ATCC 29213 = test: Ethidium bromide efflux fluorescence assay; type: cell-based; conditions: EPIs at 4 times MEC for EtBr, A-106 at 100 μg/ml; versus control cells without EPI
Method: S. aureus cells were loaded with EtBr as described in Example 1. EPIs were used at 4XMEC (minimal effective concentration) (25 μg/ml reserpine; 100 μg/ml VX-710 (compound A-106 in Table A-2); 6.25 μg/ml VX-853 (compound C-9 in Table C-I), and no EPI control—as labeled). Fluorescence was continuously monitored over time at room temperature and results are an average of at least 3 replicates.
Ethidium bromide (EtBr) efflux assays with S. aureus were performed using the method described by Markham et al. (Markham, et al., “Multiple Novel Inhibitors of the NorA Multidrug Transporter of Staphylococcus aureus”, Antimicrob. Agents Chemother. 43:2404-2408 (1999)). […] Ethidium bromide efflux was determined by continuously monitoring fluorescence at an excitation wavelength of 530 nm and an emission wavelength of 600 nm in a black 96-well polystyrene plate with clear, flat bottom (Costar #3904, Cambridge, Mass.) using a SpectraMax Gemini spectrofluorimeter (Molecular Devices, Sunnydale, Calif.). […]
Markham et al., “Multiple Novel Inhibitors of the NorA Multidrug Transporter of Staphylococcus aureus”, Antimicrob. […] Since ethidium only fluoresces when it is bound to nucleic acid inside of cells, a decrease in fluorescence over time is due to active efflux. […]

[4] = E. faecalis clinical isolate 10
[5] = E. faecalis clinical isolate 11
[6] = E. faecalis clinical isolate 12
[7] = E. faecalis clinical isolate 13
[8] = E. faecalis clinical isolate 14
[9] = E. faecalis clinical isolate 15
[10] = E. faecalis clinical isolate 16
[11] = E. faecalis clinical isolate 17
[12] = E. faecalis clinical isolate 18
[13] = E. faecalis clinical isolate 19
[14] = E. faecalis clinical isolate 20
[15] = E. faecalis clinical isolate 21
[16] = E. faecalis clinical isolate 22
[17] = E. faecalis clinical isolate 23
[18] = E. faecalis clinical isolate 24
[19] = E. faecalis clinical isolate 25
[20] = E. faecalis clinical isolate 26

## COc1cc(C(=O)C(=O)N2CCCC[C@H]2C(=O)OC(CCCc2cccnc2)CCCc2cccnc2)cc(OC)c1OC [A-106]
[1]; S. aureus isolates # 3, 6, 9
  change of norfloxacin MIC in combination with EPI: reductions in MICs
[1]; S. aureus isolates # 3 and 5
  change of ciprofloxacin MIC in combination with EPI: reductions in MICs
[1]; S. aureus isolates, Table 5A
  isolates with >2-fold decrease in the MIC for ciprofloxacin: 10/15
  isolates with >2-fold decrease in the MIC for norfloxacin: 13/15
[1]; highly fluoroquinolone-resistant strains in the panel
  restoration of clinical susceptibility: insufficient to restore clinical susceptibility
[1]; S. aureus clinical isolate 1
  Ciprofloxacin MIC with EPI: 0.5 µg/mL
  Norfloxacin MIC with EPI: 2 µg/mL
[1]; S. aureus clinical isolate 2
  Ciprofloxacin MIC with EPI: 0.12 µg/mL
  Norfloxacin MIC with EPI: ≦0.25 μg/ml
[1]; S. aureus clinical isolate 3
  Ciprofloxacin MIC with EPI: ≦0.06 μg/ml
  Norfloxacin MIC with EPI: ≦0.25 μg/ml
[1]; S. aureus clinical isolate 4
  Ciprofloxacin MIC with EPI: 64 µg/mL
  Norfloxacin MIC with EPI: 128 µg/mL
[1]; S. aureus clinical isolate 5
  Ciprofloxacin MIC with EPI: ≦0.06 μg/ml
  Norfloxacin MIC with EPI: ≦0.25 μg/ml
[1]; S. aureus clinical isolate 6
  Ciprofloxacin MIC with EPI: 8 µg/mL
  Norfloxacin MIC with EPI: 8 µg/mL
[1]; S. aureus clinical isolate 7
  Ciprofloxacin MIC with EPI: ≦0.06 μg/ml
  Norfloxacin MIC with EPI: ≦0.25 μg/ml
[1]; S. aureus clinical isolate 8
  Ciprofloxacin MIC with EPI: 0.25 µg/mL
  Norfloxacin MIC with EPI: 1 µg/mL
[1]; S. aureus clinical isolate 9
  Ciprofloxacin MIC with EPI: ≦0.06 μg/ml
  Norfloxacin MIC with EPI: ≦0.25 μg/ml
[1]; S. aureus clinical isolate 10
  Ciprofloxacin MIC with EPI: 8 µg/mL
  Norfloxacin MIC with EPI: 16 µg/mL
[1]; S. aureus clinical isolate 11
  Ciprofloxacin MIC with EPI: 8 µg/mL
  Norfloxacin MIC with EPI: 32 µg/mL
[1]; S. aureus clinical isolate 12
  Ciprofloxacin MIC with EPI: ≦0.06 μg/ml
  Norfloxacin MIC with EPI: ≦0.25 μg/ml
[1]; S. aureus clinical isolate 13
  Ciprofloxacin MIC with EPI: 32 µg/mL
  Norfloxacin MIC with EPI: 64 µg/mL
[1]; S. aureus clinical isolate 14
  Ciprofloxacin MIC with EPI: 32 µg/mL
  Norfloxacin MIC with EPI: 64 µg/mL
[1]; S. aureus clinical isolate 15
  Ciprofloxacin MIC with EPI: 32 µg/mL
  Norfloxacin MIC with EPI: 64 µg/mL
[2]; E. faecalis clinical isolate 1
  Ciprofloxacin MIC with EPI: 0.5 µg/mL
  Norfloxacin MIC with EPI: 2 µg/mL
[2]; E. faecalis clinical isolate 2
  Ciprofloxacin MIC with EPI: 0.5 µg/mL
  Norfloxacin MIC with EPI: 1 µg/mL
[2]; E. faecalis clinical isolate 3
  Ciprofloxacin MIC with EPI: 32 µg/mL
  Norfloxacin MIC with EPI: 64 µg/mL
[2]; E. faecalis clinical isolate 4
  Ciprofloxacin MIC with EPI: 32 µg/mL
  Norfloxacin MIC with EPI: 64 µg/mL
[2]; E. faecalis clinical isolate 5
  Ciprofloxacin MIC with EPI: 32 µg/mL
  Norfloxacin MIC with EPI: 64 µg/mL
[2]; E. faecalis clinical isolate 6
  Ciprofloxacin MIC with EPI: 0.5 µg/mL
  Norfloxacin MIC with EPI: 1 µg/mL
[2]; E. faecalis clinical isolate 7
  Ciprofloxacin MIC with EPI: 0.5 µg/mL
  Norfloxacin MIC with EPI: 1 µg/mL
[2]; E. faecalis clinical isolate 8
  Ciprofloxacin MIC with EPI: 32 µg/mL
  Norfloxacin MIC with EPI: 64 µg/mL
[2]; E. faecalis clinical isolate 9
  Ciprofloxacin MIC with EPI: 1 µg/mL
  Norfloxacin MIC with EPI: 2 µg/mL
[2]; [4]
  Ciprofloxacin MIC with EPI: 16 µg/mL
  Norfloxacin MIC with EPI: 32 µg/mL
[2]; [5]
  Ciprofloxacin MIC with EPI: 16 µg/mL
  Norfloxacin MIC with EPI: 64 µg/mL
[2]; [6]
  Ciprofloxacin MIC with EPI: 0.5 µg/mL
  Norfloxacin MIC with EPI: 1 µg/mL
[2]; [7]
  Ciprofloxacin MIC with EPI: 0.5 µg/mL
  Norfloxacin MIC with EPI: 1 µg/mL
[2]; [8]
  Ciprofloxacin MIC with EPI: 0.25 µg/mL
  Norfloxacin MIC with EPI: 0.5 µg/mL
[2]; [9]
  Ciprofloxacin MIC with EPI: 1 µg/mL
  Norfloxacin MIC with EPI: 2 µg/mL
[2]; [10]
  Ciprofloxacin MIC with EPI: 1 µg/mL
  Norfloxacin MIC with EPI: 2 µg/mL
[2]; [11]
  Ciprofloxacin MIC with EPI: 0.5 µg/mL
  Norfloxacin MIC with EPI: 2 µg/mL
[2]; [12]
  Ciprofloxacin MIC with EPI: 32 µg/mL
  Norfloxacin MIC with EPI: 64 µg/mL
[2]; [13]
  Ciprofloxacin MIC with EPI: 1 µg/mL
  Norfloxacin MIC with EPI: 2 µg/mL
[2]; [14]
  Ciprofloxacin MIC with EPI: 0.5 µg/mL
  Norfloxacin MIC with EPI: 2 µg/mL
[2]; [15]
  Ciprofloxacin MIC with EPI: 0.5 µg/mL
  Norfloxacin MIC with EPI: 1 µg/mL
[2]; [16]
  Ciprofloxacin MIC with EPI: 32 µg/mL
  Norfloxacin MIC with EPI: 64 µg/mL
[2]; [17]
  Ciprofloxacin MIC with EPI: 32 µg/mL
  Norfloxacin MIC with EPI: 32 µg/mL
[2]; [18]
  Ciprofloxacin MIC with EPI: 16 µg/mL
  Norfloxacin MIC with EPI: 32 µg/mL
[2]; [19]
  Ciprofloxacin MIC with EPI: 32 µg/mL
  Norfloxacin MIC with EPI: 64 µg/mL
[2]; [20]
  Ciprofloxacin MIC with EPI: 32 µg/mL
  Norfloxacin MIC with EPI: 64 µg/mL
[2]; E. faecalis isolates, Table 5B
  trend in the reduction of MICs for ciprofloxacin and norfloxacin: two-fold trend in the reduction of MICs
[3]
  adverse events in clinical studies: only mild adverse events
S. aureus ATCC 29213
  loss of EtBr fluorescence over time (FIG. 1): much more gradual loss of fluorescence
